Target: T1, recombinant His-tag Y220C p53 DBD protein (Homo sapiens, UniProt P04637, Y220C)
T1 construct: recombinant His-tag Y220C p53 DBD protein (amino acids #˜94-312)
Assay: In vitro DNA binding activity assay (TR-FRET): binding of His-tag Y220C p53 DBD to biotin-labeled consensus DNA
Format: biochemical
Conditions: SC150 = concentration to increase DNA binding by […], His-tag Y220C p53 DBD, biotin-labeled consensus DNA

SMILES | Y220C SC150 (μM)
CCN1CC[C@@H](Nc2cccc3c2cc(-c2noc(CNC(=O)c4ccn(C5CCOCC5)c4)n2)n3CC(F)(F)F)[C@@H](F)C1 [Compound 333B, N-{[3-(4-{[(3S,4R)-1-ethyl-3-fluoropiperidin-4-yl]amino}-1-(2,2,2-trifluoroethyl)-1H-indol-2-yl)-1,2,4-oxadiazol-5-yl]methyl}-1-(oxan-4-yl)-1H-pyrrole-3-carboxamide] | * (* = 0 μM ≤ SC150 < 0.1 μM)
CN1CC[C@@H](Nc2cccc3c2cc(-c2noc(CNC(=O)c4ccn(C(C)(C)CO)c4)n2)n3CC(F)(F)F)[C@@H](F)C1 [Compound 441B] | * (* = 0 μM ≤ SC150 < 0.1 μM)
CN1CC[C@H](Nc2cccc3c2cc(-c2noc(CNC(=O)c4ccsc4)n2)n3CC(F)(F)F)[C@H](F)C1 [Compound 190B, N-{[3-(4-{[(3R,4S)-3-fluoro-1-methylpiperidin-4-yl]amino}-1-(2,2,2-trifluoroethyl)-1H-indol-2-yl)-1,2,4-oxadiazol-5-yl]methyl}thiophene-3-carboxamide] | * (* = 0 μM ≤ SC150 < 0.1 μM)
Cc1c(C(=O)NCc2nc(-c3cc4c(N[C@@H]5CCN(C)C[C@@H]5F)cccc4n3CC(F)(F)F)no2)cnn1C(C)(C)C [Compound 322B, 1-tert-butyl-N-{[3-(4-{[(3S,4R)-3-fluoro-1-methylpiperidin-4-yl]amino}-1-(2,2,2-trifluoroethyl)-1H-indol-2-yl)-1,2,4-oxadiazol-5-yl]methyl}-5-methyl-1H-pyrazole-4-carboxamide] | * (* = 0 μM ≤ SC150 < 0.1 μM)
CCN1CC[C@@H](Nc2cccc3c2cc(-c2noc(CNC(=O)c4ccn(C(C)(C)C)c4)n2)n3CC(F)(F)F)[C@@H](F)C1 [Compound 298B, 1-tert-butyl-N-{[3-(4-{[(3S,4R)-1-ethyl-3-fluoropiperidin-4-yl]amino}-1-(2,2,2-trifluoroethyl)-1H-indol-2-yl)-1,2,4-oxadiazol-5-yl]methyl}-1H-pyrrole-3-carboxamide] | * (* = 0 μM ≤ SC150 < 0.1 μM)
CCCNC[C@@H]1C[C@H]1C(=O)NCc1nc(-c2cc3c(N[C@@H]4CCN(C)C[C@@H]4F)cccc3n2CC(F)(F)F)no1 [Compound 247B, (1R,2R)-N-{[3-(4-{[(3S,4R)-3-fluoro-1-methylpiperidin-4-yl]amino}-1-(2,2,2-trifluoroethyl)-1H-indol-2-yl)-1,2,4-oxadiazol-5-yl]methyl}-2-[(propylamino)methyl]cyclopro-pane-1-carboxamide] | * (* = 0 μM ≤ SC150 < 0.1 μM)
O=C(NCc1nc(-c2cc3c(NCC4CC4)cccc3n2CC(F)(F)F)no1)C1CC1 [Compound 165B, N-[(3-{4-[(cyclopropylmethyl)amino]-1-(2,2,2-trifluoroethyl)-1H-indol-2-yl}-1,2,4-oxadiazol-5-yl)methyl]cyclopropanecarboxamide] | ** (** = 0.1 μM ≤ SC150 < 0.5 μM)
CN1CC[C@@H](Nc2cccc3c2cc(-c2noc(CNC(=O)c4ccn([C@H]5CC[C@](C)(O)C5)c4)n2)n3CC(F)(F)F)[C@@H](F)C1 (stereo in doubt) [Compound 373B, Trans-N-{[3-(4-{[(3S,4R)-3-fluoro-1-methylpiperidin-4-yl]amino}-1-(2,2,2-trifluoroethyl)-1H-indol-2-yl)-1,2,4-oxadiazol-5-yl]methyl}-1-[(1R,3R)-3-hydroxy-3-methylcyclopentyl]-1H-pyrrole-3-carboxamide] | * (* = 0 μM ≤ SC150 < 0.1 μM)
COCCN1CC[C@@H](Nc2cccc3c2cc(-c2noc(CNC(=O)c4ccn(C(C)(C)C)c4)n2)n3CC(F)(F)F)[C@@H](F)C1 [Compound 337B, 1-tert-butyl-N-{[3-(4-{[(3S,4R)-3-fluoro-1-(2-methoxyethyl)piperidin-4-yl]amino}-1-(2,2,2-trifluoroethyl)-1H-indol-2-yl)-1,2,4-oxadiazol-5-yl]methyl}-1H-pyrrole-3-carboxamide] | * (* = 0 μM ≤ SC150 < 0.1 μM)
CN1CC[C@@H](Nc2cccc3c2cc(-c2noc(CNC(=O)c4cn(C5CC5)cn4)n2)n3CC(F)(F)F)[C@@H](F)C1 [Compound 327B, 1-cyclopropyl-N-{[3-(4-{[(3S,4R)-3-fluoro-1-methylpiperidin-4-yl]amino}-1-(2,2,2-trifluoroethyl)-1H-indol-2-yl)-1,2,4-oxadiazol-5-yl]methyl}-1H-imidazole-4-carboxamide] | * (* = 0 μM ≤ SC150 < 0.1 μM)
Cc1c[nH]c2ccc(C(=O)NCc3nc(-c4cc5c(N[C@@H]6CCN(C)C[C@@H]6F)cccc5n4CC(F)(F)F)no3)cc12 [Compound 266B, N-{[3-(4-{[(3S,4R)-3-fluoro-1-methylpiperidin-4-yl]amino}-1-(2,2,2-trifluoroethyl)-1H-indol-2-yl)-1,2,4-oxadiazol-5-yl]methyl}-3-methyl-1H-indole-5-carboxamide] | * (* = 0 μM ≤ SC150 < 0.1 μM)
CN1CC[C@@H](Nc2cccc3c2cc(-c2noc(CNC(=O)c4coc(C(C)(C)C)n4)n2)n3CC(F)(F)F)[C@@H](F)C1 [Compound 440B, 2-tert-butyl-N-{[3-(4-{[(3S,4R)-3-fluoro-1-methylpiperidin-4-yl]amino}-1-(2,2,2-trifluoroethyl)-1H-indol-2-yl)-1,2,4-oxadiazol-5-yl]methyl}-1,3-oxazole-4-carboxamide] | * (* = 0 μM ≤ SC150 < 0.1 μM)
CN1CC[C@H](Nc2cccc3c2cc(-c2nnc(CNc4cccc(S(C)(=O)=O)c4)o2)n3CC(F)(F)F)[C@H](F)C1 (racemic) [Compound 122B, (+/−)-N-[(3R,4S)-3-fluoro-1-methylpiperidin-4-yl]-2-(5-{[(3-methanesulfonylphenyl)amino]methyl}-1,3,4-oxadiazol-2-yl)-1-(2,2,2-trifluoroethyl)-1H-indol-4-amine] | ** (** = 0.1 μM ≤ SC150 < 0.5 μM)
CN1CCC(Nc2cccc3c2cc(-c2noc(CNC(=O)Nc4ccccc4)n2)n3CC(F)(F)F)CC1 [Compound 153B, 3-[(3-{4-[(1-methylpiperidin-4-yl)amino]-1-(2,2,2-trifluoroethyl)-1H-indol-2-yl}-1,2,4-oxadiazol-5-yl)methyl]-1-phenylurea] | * (* = 0 μM ≤ SC150 < 0.1 μM)
CN1CCC(Nc2cccc3c2cc(-c2nnc(CNC(=O)C4(F)CC4)s2)n3CC(F)(F)F)CC1 [Compound 31B, 1-fluoro-N-[(5-{4-[(1-methylpiperidin-4-yl)amino]-1-(2,2,2-trifluoroethyl)-1H-indol-2-yl}-1,3,4-thiadiazol-2-yl)methyl]cyclopropane-1-carboxamide] | ** (** = 0.1 μM ≤ SC150 < 0.5 μM)
CN1CC[C@@H](Nc2cccc3c2cc(-c2noc(CNC(=O)c4cccc(N5CCCC5)c4)n2)n3CC(F)(F)F)[C@@H](F)C1 [Compound 263B, N-{[3-(4-{[(3S,4R)-3-fluoro-1-methylpiperidin-4-yl]amino}-1-(2,2,2-trifluoroethyl)-1H-indol-2-yl)-1,2,4-oxadiazol-5-yl]methyl}-3-(pyrrolidin-1-yl)benzamide] | * (* = 0 μM ≤ SC150 < 0.1 μM)
CC(C)c1ccc(C(=O)NCc2nc(-c3cc4c(N[C@@H]5CCN(C)C[C@@H]5F)cccc4n3CC(F)(F)F)no2)s1 [Compound 444B, N-{[3-(4-{[(3S,4R)-3-fluoro-1-methylpiperidin-4-yl]amino}-1-(2,2,2-trifluoroethyl)-1H-indol-2-yl)-1,2,4-oxadiazol-5-yl]methyl}-5-(propan-2-yl)thiophene-2-carboxamide] | * (* = 0 μM ≤ SC150 < 0.1 μM)
CN1CC[C@@H](Nc2cccc3c2cc(-c2noc(CNC(=O)[C@H]4C[C@@H]4C#N)n2)n3CC(F)(F)F)[C@@H](F)C1 (racemic) [Compound 193B, (1RS,2RS)-2-cyano-N-{[3-(4-{[(3S,4R)-3-fluoro-1-methylpiperidin-4-yl]amino}-1-(2,2,2-trifluoroethyl)-1H-indol-2-yl)-1,2,4-oxadiazol-5-yl]methyl}cyclopropane-1-carboxamide] | * (* = 0 μM ≤ SC150 < 0.1 μM)
CN1CC[C@@H](Nc2cccc3c2cc(-c2noc(CNC(=O)c4ccn([C@H]5CC[C@@H](N(C)C)C5)c4)n2)n3CC(F)(F)F)[C@@H](F)C1 (stereo in doubt) [Compound 362B, Cis-1-[(1R,3R)-3-(dimethylamino)cyclopentyl]-N-{[3-(4-{[(3S,4R)-3-fluoro-1-methylpiperidin-4-yl]amino}-1-(2,2,2-trifluoroethyl)-1H-indol-2-yl)-1,2,4-oxadiazol-5-yl]methyl}-1H-pyrrole-3-carboxamide] | * (* = 0 μM ≤ SC150 < 0.1 μM)
CN1CCC(Nc2cccc3c2cc(-c2nnc(CNC(=O)c4cccc(F)c4)s2)n3CC(F)(F)F)CC1 [Compound 51B, 3-fluoro-N-[(5-{4-[(1-methylpiperidin-4-yl)amino]-1-(2,2,2-trifluoroethyl)-1H-indol-2-yl}-1,3,4-thiadiazol-2-yl)methyl]benzamide] | * (* = 0 μM ≤ SC150 < 0.1 μM)

Same assay, conditions: concentration to increase DNA binding by […], incubated at either 27° C. or 29° C. for 60 min

SMILES | SC150 (μM)
O=S1(=O)CCC(Nc2cccc3c2cc(-c2ccc(CO)cc2)n3CC(F)(F)F)CC1 [Compound 27A, 4-({2-[4-(hydroxymethyl)phenyl]-1-(2,2,2-trifluoroethyl)-1H-indol-4-yl}amino)-1λ^6-thiane-1,1-dione] | ++ (++ = 2 μM ≤ SC150 < 5 μM)
CNCc1ccc(-c2cc3c(NC4CCS(=O)(=O)CC4)cccc3n2CC(F)(F)F)cc1 [Compound 3A, 4-[(2-{4-[(methylamino)methyl]phenyl}-1-(2,2,2-trifluoroethyl)-1H-indol-4-yl)amino]-1λ^6-thiane-1,1-dione] | +++ (+++ = 5 μM ≤ SC150 < 10 μM)
CN1CCC(Nc2cccc3c2cc(-c2ccc(CNC4CCCC4)cc2)n3CC(F)(F)F)CC1 [Compound 40A, 2-{4-[(cyclopentylamino)methyl]phenyl}-N-(1-methylpiperidin-4-yl)-1-(2,2,2-trifluoroethyl)-1H-indol-4-amine] | ++++ (++++ = 10 μM ≤ SC150 < 35 μM)
